Molecular target: mouse Trpa1 (Mus musculus, UniProt Q8BLA8)
Test: Ca2+ influx assay in HEK-293T cells transfected with mouse TRPA1
Assay type: cell-based

mouse Trpa1, sequence (Q8BLA8 whole entry): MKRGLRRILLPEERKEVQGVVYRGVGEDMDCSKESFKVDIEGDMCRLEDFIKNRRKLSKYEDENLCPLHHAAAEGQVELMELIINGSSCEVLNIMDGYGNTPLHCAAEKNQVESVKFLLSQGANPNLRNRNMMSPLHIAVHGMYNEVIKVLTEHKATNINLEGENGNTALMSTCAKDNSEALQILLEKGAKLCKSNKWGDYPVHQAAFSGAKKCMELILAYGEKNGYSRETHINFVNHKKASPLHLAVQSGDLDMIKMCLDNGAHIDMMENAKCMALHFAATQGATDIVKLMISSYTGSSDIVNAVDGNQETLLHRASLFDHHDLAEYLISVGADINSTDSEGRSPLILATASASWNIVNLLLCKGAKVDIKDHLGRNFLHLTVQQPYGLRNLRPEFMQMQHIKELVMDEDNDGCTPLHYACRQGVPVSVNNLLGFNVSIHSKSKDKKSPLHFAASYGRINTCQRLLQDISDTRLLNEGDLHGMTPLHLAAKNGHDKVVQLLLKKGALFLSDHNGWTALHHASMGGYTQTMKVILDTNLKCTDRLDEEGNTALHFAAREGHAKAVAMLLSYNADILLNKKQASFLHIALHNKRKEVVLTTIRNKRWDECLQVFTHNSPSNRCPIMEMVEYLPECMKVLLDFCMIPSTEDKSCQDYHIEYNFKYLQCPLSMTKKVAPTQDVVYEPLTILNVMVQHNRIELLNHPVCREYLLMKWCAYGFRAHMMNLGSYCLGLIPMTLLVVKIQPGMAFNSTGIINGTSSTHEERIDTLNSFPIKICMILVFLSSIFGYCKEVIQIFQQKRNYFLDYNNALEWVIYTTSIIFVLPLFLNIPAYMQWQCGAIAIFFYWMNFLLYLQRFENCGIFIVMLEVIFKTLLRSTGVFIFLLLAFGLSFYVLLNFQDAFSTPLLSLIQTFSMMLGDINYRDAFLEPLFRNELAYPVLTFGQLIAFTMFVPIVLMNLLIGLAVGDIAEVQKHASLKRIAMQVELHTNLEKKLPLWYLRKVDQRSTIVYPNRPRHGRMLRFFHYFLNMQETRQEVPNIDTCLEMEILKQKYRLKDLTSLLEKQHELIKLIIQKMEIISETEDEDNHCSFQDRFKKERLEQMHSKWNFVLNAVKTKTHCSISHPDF

Compound	Ca2+ influx assay in HEK-293T cells transfected with mouse TRPA1
O=Cc1c[nH]c2ccccc12 [IAld, Indole-3-carboxaldehyde]	Both indole and IAld also activated mouse Trpa1, but in a less potent manner
c1ccc2[nH]ccc2c1 [Indole]	Both indole and IAld also activated mouse Trpa1, but in a less potent manner
